# Source: US20240042019A1, “OPTIMIZED TLR7 LIGANDS AND USES THEREOF” (Genentech, Inc., priority 2021, published 2024)
# Read-outs that look alike come from different tables or passages of the source. Oligonucleotides are written 5' to 3', each unit as a sugar letter and its base; * is a phosphorothioate linkage, no mark a phosphodiester; rarer units and linkages stand in square brackets, end groups in braces. Plain capitals give the bases only. m = 2'-O-methyl; r = 2'-OH (RNA); f = 2'-fluoro
# Experiments:
# Format in all cases: cell-based
# [1] = target: T1, TLR7 (Homo sapiens, UniProt Q9NYK1); assay: PBMC stimulation with p-L-arginine-complexed RNA ligands, IFN-α ELISA; settings: human PBMCs; for IFN-α secretion (TLR7 activity): p-L-arginine delivery, 16 hours, ELISA (FIG. 7); for IFN-α secretion when co-delivered with 2′3′ cGMP: p-L-arginine complexes with 2′3′ cyclic GMP 5 μg/ml, ORN 0.6 μg/ml (FIG. 12)
# T1 construct: Peripheral blood mononuclear cells (PBMCs) were obtained from buffy coats from healthy adult donors; endogenous in cells; host or cells: primary human PBMCs from healthy donor buffy coats (TLR7 expressed by pDCs)
# T1 sequence (Q9NYK1 27-1049): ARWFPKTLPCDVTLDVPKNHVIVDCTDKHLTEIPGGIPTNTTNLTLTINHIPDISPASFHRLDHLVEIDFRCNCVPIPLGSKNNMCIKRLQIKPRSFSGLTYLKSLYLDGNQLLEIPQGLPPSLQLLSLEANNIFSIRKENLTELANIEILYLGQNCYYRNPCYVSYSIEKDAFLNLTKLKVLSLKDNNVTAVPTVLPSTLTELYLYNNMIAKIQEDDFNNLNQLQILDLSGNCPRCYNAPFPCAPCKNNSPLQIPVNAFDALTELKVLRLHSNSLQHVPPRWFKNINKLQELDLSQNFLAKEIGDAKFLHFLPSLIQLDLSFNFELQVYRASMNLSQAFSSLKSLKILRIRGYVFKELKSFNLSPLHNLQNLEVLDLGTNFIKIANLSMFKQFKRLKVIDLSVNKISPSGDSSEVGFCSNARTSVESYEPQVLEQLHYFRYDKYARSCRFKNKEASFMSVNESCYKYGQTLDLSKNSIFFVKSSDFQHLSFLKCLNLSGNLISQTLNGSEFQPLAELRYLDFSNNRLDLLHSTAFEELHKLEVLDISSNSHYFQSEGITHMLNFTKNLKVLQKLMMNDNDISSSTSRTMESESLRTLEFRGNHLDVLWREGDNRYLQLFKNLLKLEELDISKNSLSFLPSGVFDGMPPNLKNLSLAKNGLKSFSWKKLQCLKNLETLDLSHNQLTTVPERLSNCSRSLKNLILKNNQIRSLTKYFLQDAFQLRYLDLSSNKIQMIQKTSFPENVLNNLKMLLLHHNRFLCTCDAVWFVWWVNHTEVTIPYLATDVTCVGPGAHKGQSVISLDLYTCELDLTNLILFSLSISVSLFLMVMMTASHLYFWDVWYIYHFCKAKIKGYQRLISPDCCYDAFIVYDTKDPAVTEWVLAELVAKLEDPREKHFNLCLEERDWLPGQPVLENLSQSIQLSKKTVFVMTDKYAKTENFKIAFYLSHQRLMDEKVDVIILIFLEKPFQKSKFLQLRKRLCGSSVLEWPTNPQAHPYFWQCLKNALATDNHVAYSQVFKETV
# Experimental: (§1) Peripheral blood mononuclear cells (PBMCs) were obtained from buffy coats from healthy adult donors. Buffy coat samples were first diluted with an equal volume of phosphate-buffered saline (PBS). Next, PBMCs were isolated via density gradient centrifugation with Lymphoprep density gradient media ([…] Technologies) and SepMate-50 tubes ([…] Technologies). Samples were centrifuged at 1000 g for 15 minutes. After centrifugation, the upper layers were collected by pouring into a new tube, diluted with PBS, and centrifuged at 450×g for 5 minutes. To lyse red blood cells, cell pellets were resuspended with 10 mL Ammonium-Chloride-Potassium (ACK) Lysis Buffer and incubated for 8 minutes at room temperature. After lysis, cells were washed with PBS and passed through two 70 μm cell strainers. Viable cell counts were determined with a Vi-CELL cell counter (Beckman Coulter). […] Guanosine was added between about 20 and about 30 minutes before the addition of poly-[…])-complexed RNA. […] After mixing by pipetting up and down, the reaction was incubated for 10 minutes, pipetted up and down again, and then added to the cells. In some experiments, RNA ligands were used at a final concentration of 0.6 μg/ml. Where indicated as “+2'3' cGMP”, 2'3' cyclic GMP purchased from eMolecules was complexed together with the RNA ligands. The final concentration of 2'3' cyclic GMP was 5 μg/ml. p-L-arginine was adjusted accordingly to keep the mass ratio of nucleic acid:p-L-arginine constant. Cell culture supernatants were collected 15-18 hours after stimulation and stored at -80° C. Cytokines in cell culture supernatants were detected with the BD OptEIA human TNF ELISA Set (BD Biosciences), and either Invitrogen IFN alpha Human Matched Antibody Pair kit (Thermo Fisher Scientific) or Human IFN Alpha Multi-Subtype ELISA Kit (PBL Assay Science). To test the effects of the RNA ligands described in Example 1 on TLR7 and TLR8 activation, PBMCs were stimulated with the RNA ligands using p-L-arginine complex delivery, delivery with DOTAP, or delivery without a carrier. Activity of TLR7 and TLR8 was assessed based on measurements of IFN-α or TNF-α by enzyme-linked immunosorbent assays (ELISA). In this setting, as depicted in FIG. 6, IFN-α induced by small RNAs is derived from TLR7 expressed by pDCs, or from RIG-I expressed by monocytes. In contrast, TNF-α secretion is derived from monocytes and serves as an indication of TLR8 activation. As shown in this figure, the p-L-arginine delivery restricts most of the activation to TLRs. First, the effects of the RNA ligands on TLR7 and TLR8 activation using p-L-arginine complex delivery were tested.
# [2] = target: T1, TLR7; assay: PBMC stimulation with DOTAP-complexed RNA ligands, IFN-α ELISA
# [3] = target: T2, TLR8 (Homo sapiens, UniProt Q9NR97); assay: PBMC stimulation with DOTAP-complexed RNA ligands, TNF-α ELISA
# T2 construct: Peripheral blood mononuclear cells (PBMCs) were obtained from buffy coats from healthy adult donors; endogenous in cells; host or cells: primary human PBMCs from healthy donor buffy coats (TLR8 in monocytes)
# T2 sequence (Q9NR97 27-1041): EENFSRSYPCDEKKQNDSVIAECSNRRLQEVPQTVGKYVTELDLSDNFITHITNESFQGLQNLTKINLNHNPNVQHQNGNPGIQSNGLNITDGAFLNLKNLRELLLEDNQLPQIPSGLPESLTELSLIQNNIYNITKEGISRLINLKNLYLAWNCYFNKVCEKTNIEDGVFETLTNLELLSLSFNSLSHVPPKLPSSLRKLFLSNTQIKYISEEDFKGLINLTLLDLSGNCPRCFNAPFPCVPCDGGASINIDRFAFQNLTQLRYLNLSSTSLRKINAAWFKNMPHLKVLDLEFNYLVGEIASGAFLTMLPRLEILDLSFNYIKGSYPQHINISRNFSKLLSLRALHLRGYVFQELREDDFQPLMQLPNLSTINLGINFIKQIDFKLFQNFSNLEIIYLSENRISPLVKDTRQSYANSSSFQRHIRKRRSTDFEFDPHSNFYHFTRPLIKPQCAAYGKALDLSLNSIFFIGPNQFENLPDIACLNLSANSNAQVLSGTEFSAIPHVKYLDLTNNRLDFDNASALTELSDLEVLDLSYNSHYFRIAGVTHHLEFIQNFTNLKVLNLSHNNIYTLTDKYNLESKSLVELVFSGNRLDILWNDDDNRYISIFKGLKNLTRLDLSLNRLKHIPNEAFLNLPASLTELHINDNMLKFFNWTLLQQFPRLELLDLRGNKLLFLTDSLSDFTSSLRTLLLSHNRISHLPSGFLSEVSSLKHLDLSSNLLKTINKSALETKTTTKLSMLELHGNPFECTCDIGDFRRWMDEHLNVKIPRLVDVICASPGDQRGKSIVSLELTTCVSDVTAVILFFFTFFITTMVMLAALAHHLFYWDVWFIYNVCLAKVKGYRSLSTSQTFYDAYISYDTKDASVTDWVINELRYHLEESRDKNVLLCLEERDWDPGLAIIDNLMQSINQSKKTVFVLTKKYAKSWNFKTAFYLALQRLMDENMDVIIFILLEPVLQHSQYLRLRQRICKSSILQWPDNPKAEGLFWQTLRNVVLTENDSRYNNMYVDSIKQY
# [4] = target: T2, TLR8; assay: PBMC stimulation with p-L-arginine-complexed RNA ligands, TNF-α ELISA; settings: human PBMCs, p-L-arginine complexes with 2′3′ cyclic GMP 5 μg/ml, ORN 0.6 μg/ml (FIG. 12)
# Experimental: as §1
# [5] = human PBMCs, DOTAP delivery, 0.6 μg/ml and 2 μg/ml, 16 hours (FIGS. 10A-10B)
# [6] = human PBMCs, DOTAP delivery, 2 μg/ml (FIG. 10B)
Substance,IFN-α secretion (TLR7 activity) [1],"IFN-α secretion (TLR7 activity) [2, 5]","TNF-α secretion (TLR8 activity) [3, 5]",further results
C*G*G*C*U*C*G*G*C*A*G*A*A*G*C*C*G*G*G*C*C (rC*rG*rG*rC*rU*rC*rG*rG*rC*rA*rG*rA*rA*rG*rC*rC*rG*rG*rG*rC*rC) [ORN7024],reduced activity,–,–,–
"C-A-G-A-C-C*U*U*C-C-A-G-A-C-C*U*U*C (CAGACCUUCCAGACCUUC; linkages o5 s3 o6 s3 (s phosphorothioate, o phosphodiester), sugars by position not given here) [ORN7004]",–,–,–,IFN-α secretion (TLR7 activity) [2]: mildly increased TLR7 activity; TNF-α secretion (TLR8 activity) [3]: markedly increased TLR8 activity
"C-A-G-A-C-C-U-U-C-C-A-G-A-C-C-U-U-C (CAGACCUUCCAGACCUUC; unmodified RNA) [ORN7001, de novo designed ligand]",no or only minor IFN-α secretion,induced TLR7 and TLR8 activity,induced TLR7 and TLR8 activity,–
"C-C-G-A-G-C-C-G-C*U*U*U*U*C-C-C (rCrCrGrArGrCrCrGrC*rU*rU*rU*rU*rCrCrC) [ORN7022, phosphodiester-linked version of ORN7013]",–,activated both TLR7 and TLR8,activated both TLR7 and TLR8,–
"C-C-G-A-G-C-C-G-C-fU-U*fU-U*C-C-C (rCrCrGrArGrCrCrGrCfUrU*fUrU*rCrCrC) [ORN7019, 2′-fluoro-modified and phosphodiester-linked version of ORN7013]",–,–,–,"IFN-α secretion (TLR7 activity) ([2]; human PBMCs, DOTAP delivery, 0.6 μg/ml (FIG. 10A)): selective TLR7 activation; TNF-α secretion (TLR8 activity) [3, 6]: also had TLR8-activity"
"C-C-fU-U-C-fU-U-C-fU-U-C-fU-U-C-fU-U-C-fU-U-C (rCrCfUrUrCfUrUrCfUrUrCfUrUrCfUrUrCfUrUrC) [ORN7011, 2′-fluoro-modified version of ORN7009]",–,–,–,"TNF-α secretion when co-delivered with 2′3′ cyclic GMP [4]: little to no measurable TNF-α; IFN-α secretion when co-delivered with 2′3′ cGMP [1]: robust IFN-a induction; IFN-α secretion (TLR7 activity) [2, 6]: had TLR7-activity; TNF-α secretion (TLR8 activity) [3, 6]: without TLR8 activity"
"C-C-mU-U-C-mU-U-C-mU-U-C-mU-U-C-mU-U-C-mU-U-C (rCrCmUrUrCmUrUrCmUrUrCmUrUrCmUrUrCmUrUrC) [ORN7010, 2′O-methyl-modified version of ORN7009]",–,reduced both TLR8 and TLR7 activation,reduced both TLR8 and TLR7 activation,TNF-α secretion when co-delivered with 2′3′ cyclic GMP [4]: little to no measurable TNF-α; IFN-α secretion when co-delivered with 2′3′ cGMP [1]: robust IFN-a induction
"C-G-G-fC-U-C-G-G-C-A-G-A-A-G-C-C-G-G-G-C-C (rCrGrGfCrUrCrGrGrCrArGrArArGrCrCrGrGrGrCrC; hairpin) [ORN7023F, 2′-fluoro-C-modified ORN7023]",further increasing the activity,–,–,TLR7 selectivity (IFN-α versus TNF-α secretion) ([1]; p-L-arginine delivery (FIG. 7)): maintained TLR7 selectivity
U*C*U*C*U*C*U*C*U*C*U*C*U*C*U*C*U*C*U*C (rU*rC*rU*rC*rU*rC*rU*rC*rU*rC*rU*rC*rU*rC*rU*rC*rU*rC*rU*rC) [ORN7008],–,–,further increased TLR8 activation,–
"UCUCUCUCUCUCUCUCUCUC (UCUCUCUCUCUCUCUCUCUC; unmodified RNA) [ORN7005, derived from pU1C of Zhang et al., 2018, reference compound]",no or only minor IFN-α secretion,activated TLR8 rather than TLR7,activated TLR8,"IFN-α response to RNA ligand alone (no 2′3′ cGMP) ([1]; p-L-arginine alone, ORN 0.6 μg/ml, one donor (FIGS. 12, 16A-16B)): unexpectedly high IFN-α response"
"U-fC-U-fC-U-fC-U-fC-U-fC-U-fC-U-fC-U-fC-U-fC-U-C (rUfCrUfCrUfCrUfCrUfCrUfCrUfCrUfCrUfCrUrC) [ORN7007, 2′-fluoro-modified version of ORN7005]",–,also reduced activity,also reduced activity,TNF-α secretion when co-delivered with 2′3′ cyclic GMP [4]: little to no measurable TNF-α; IFN-α secretion when co-delivered with 2′3′ cGMP [1]: robust IFN-a induction
